Results reported in publication PMC12775434, “Ultra-large virtual screening unveils potent agonists of the neuromodulatory orphan receptor GPR139” (Nature Communications, 2025).
Several values for one entry are separate records, joined by “and”; a condition that tells them apart may be missing. Equal values may be shown once.

Molecular target: T1, human muscarinic acetylcholine M1 receptor (M1R) (Homo sapiens, UniProt P11229)
T1 sequence (P11229 1-460): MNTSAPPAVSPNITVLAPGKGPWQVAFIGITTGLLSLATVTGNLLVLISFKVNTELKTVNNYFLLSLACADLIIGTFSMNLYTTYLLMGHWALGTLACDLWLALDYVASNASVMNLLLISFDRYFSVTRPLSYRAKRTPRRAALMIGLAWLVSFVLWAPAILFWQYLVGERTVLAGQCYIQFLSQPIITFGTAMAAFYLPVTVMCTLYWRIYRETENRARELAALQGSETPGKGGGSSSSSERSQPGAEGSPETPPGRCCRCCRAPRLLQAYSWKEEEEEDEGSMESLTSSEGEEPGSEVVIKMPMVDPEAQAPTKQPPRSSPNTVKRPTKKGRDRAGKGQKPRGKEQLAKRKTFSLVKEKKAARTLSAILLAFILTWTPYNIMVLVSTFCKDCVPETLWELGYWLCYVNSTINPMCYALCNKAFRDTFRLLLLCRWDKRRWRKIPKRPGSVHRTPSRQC
Test: Ca2+ mobilization counter-screen in M1R-CHOk1 cells
Format: cell-based
In short: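 Intracellular calcium is tracked by Fluo-4 fluorescence at 37 °C in M1R-CHOk1 cells, with compounds dispensed automatically once baseline is taken. Buffer is HBSS with 20 mM HEPES, pH 7.4, plus 2.5 mM probenecid.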

[1] = individual replicates (Supplementary Figure 2)
[2] = individual replicates (Supplementary Figure 5)

Row | Structure (SMILES) | Ca2+ signal (% of Carbachol) [1] | Ca2+ signal (% of Carbachol) [2] | further results
1 | Cc1cc(-c2nc(CC(=O)NC(C)c3ccccc3)no2)sc1C (stereo not drawn) [Compound 1, CC(NC(=O)CC1=NOC(=N1)C2=CC(C)=C(C)S2)C=3C=CC=CC3] | -12 % of Carbachol and -15 % of Carbachol | – | –
2 | Cc1cscc1-c1nc(CC(=O)NC(C)c2ccccc2)no1 (stereo not drawn) [Compound 1.1, CC(C1=CC=CC=C1)NC(CC2=NOC(C3=CSC=C3C)=N2)=O] | – | -5 % of Carbachol and -11 % of Carbachol | –
3 | COc1ccccc1-c1nc(CC(=O)NC(C)c2ccccc2)no1 (stereo not drawn) [Compound 1.2, COC1=C(C2=NC(CC(NC(C3=CC=CC=C3)C)=O)=NO2)C=CC=C1] | – | -21 % of Carbachol and 0.491 % of Carbachol and -3.3 % of Carbachol | –
4 | Cc1nocc1-c1nc(CC(=O)NC(C)c2ccccc2)no1 (stereo not drawn) [Compound 1.5, CC(C1=CC=CC=C1)NC(CC2=NOC(C3=CON=C3C)=N2)=O] | – | 5 % of Carbachol and 6 % of Carbachol and 8 % of Carbachol | –
5 | COc1cc(-c2nc(CC(=O)NC(C)c3ccccc3)no2)ccn1 (stereo not drawn) [Compound 1.7, COC1=NC=CC(C2=NC(CC(NC(C3=CC=CC=C3)C)=O)=NO2)=C1] | – | -3 % of Carbachol and 5.61 % of Carbachol and 2.51 % of Carbachol | –
6 | Cc1cc(-c2nc(CC(=O)NC(C)c3ccccc3)no2)n(C)n1 (stereo not drawn) [Compound 1.16, CC(C1=CC=CC=C1)NC(CC2=NOC(C3=CC(C)=NN3C)=N2)=O] | – | -2 % of Carbachol and 14 % of Carbachol and 5 % of Carbachol | –
7 | COC(=O)c1cc(NC(=O)NC(C)c2cccc(F)c2F)ccc1C (stereo not drawn) [Compound 2, COC(=O)C=1C=C(NC(=O)NC(C)C=2C=CC=C(F)C2F)C=CC1C] | -10 % of Carbachol and 1.81 % of Carbachol | – | –
8 | Cc1noc(C(C)NC(=O)Nc2cccc(-c3ccccc3)c2)n1 (stereo not drawn) [Compound 3, CC(NC(=O)NC=1C=CC=C(C1)C=2C=CC=CC2)C3=NC(C)=NO3] | -13 % of Carbachol and -10 % of Carbachol | – | –
9 | Cc1noc(CNC(=O)C2(C)CCCCN2C(=O)c2ccccc2)n1 (stereo not drawn) [Compound 4, CC1=NOC(CNC(=O)C2(C)CCCCN2C(=O)C=3C=CC=CC3)=N1] | -17 % of Carbachol and -15 % of Carbachol | – | –
10 | CC(NC(=O)Cn1cncc(-c2ccccc2)c1=O)c1ccccc1 (stereo not drawn) [Compound 5, C[C@@H](NC(=O)CN1C=NC=C(C=2C=CC=CC2)C1=O)C=3C=CC=CC3] | -15 % of Carbachol and -5 % of Carbachol | – | –
11 | COc1cc(OC)cc(C(=O)NNC(=O)Nc2cccc3ccccc23)c1 [Lundbeck Cmp 1a, reference compound] | – | – | Ca2+ signal (% of Carbachol) (10 µM, individual replicates (Supplementary Figure 2)): -13 % of Carbachol and 8 % of Carbachol; Ca2+ signal (% of Carbachol) (10 µM, individual replicates (Supplementary Figure 5)): -0.591 % of Carbachol and 1.3 % of Carbachol and 0.449 % of Carbachol
